Data on five compounds can be found in US20080248511A1, “METHODS TO QUENCH LIGHT FROM OPTICAL REACTIONS” (priority 2007, published 2008).

Assay [1] concerns the target T1, firefly luciferase (Photinus pyralis, UniProt P08659). Kind of assay: Detergent screen with Tergitol NP-9, firefly luciferase (Example 3). It counts as biochemical. The note with it: 0.06% quencher in reagent solution; 0.5% Tergitol NP-9. As to the method: (§1) Unless otherwise specified, materials were obtained from Sigma-Aldrich.
(§2) The firefly luciferase and Renilla luciferase enzymes were diluted as follows. Firefly luciferase was diluted to 14 ng/ml in Delbecco's Minimal Essential (DMEM) medium (Gibco/Invitrogen) containing 0.1% Prionex®. Renilla luciferase was diluted to 10 ng/ml in DMEM medium containing 0.1% Prionex®.
(§3) The luciferase reactions were initiated by adding 50 μl of the firefly luciferase or Renilla luciferase enzyme solution to 50 μl of reagent solution. The reactions were performed as described above. The retained firefly luciferase and Renilla luciferase luminescence as well as the selectivity values for each quencher were calculated (Table 3). The values listed are based on 0.06% quencher in the reagent solution.

In assay [2] the target is T2, Renilla luciferase (Renilla reniformis, UniProt P27652).
T2 sequence (P27652 1-311): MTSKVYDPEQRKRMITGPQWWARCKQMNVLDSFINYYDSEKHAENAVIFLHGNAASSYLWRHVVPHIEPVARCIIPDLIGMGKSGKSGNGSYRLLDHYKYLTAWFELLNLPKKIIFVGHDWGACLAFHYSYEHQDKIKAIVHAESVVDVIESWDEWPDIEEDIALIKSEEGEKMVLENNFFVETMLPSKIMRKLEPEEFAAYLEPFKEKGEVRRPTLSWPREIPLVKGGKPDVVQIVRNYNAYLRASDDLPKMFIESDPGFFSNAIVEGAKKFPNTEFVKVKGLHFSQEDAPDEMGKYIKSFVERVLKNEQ
The assay can be described thus: Detergent screen with Tergitol NP-9, Renilla luciferase (Example 3). The note with it: 0.5% Tergitol NP-9; for Retained Renilla Luminescence (%): 0.06% quencher in reagent solution; for Selectivity Value: retained firefly / retained Renilla, 0.06% quencher. The format is biochemical. As for the experimental part:
as §1, §2, §3

Assay [3] deals with T2, Renilla luciferase. The assay can be described thus: Detergent titration with Tergitol NP-9, digitonin or no lysing agent, Renilla luciferase (Example 4). The format is biochemical. The note with it: for remaining activity at 0.0005 % / remaining activity at 0.005 % / remaining activity at 0.05 %: read-out: Relative Renilla Luc Intensity. As to the method:
Renilla luciferase-mediated luminescence was measured from samples containing 9.6 mM phosphate buffer pH 6.8, 2.7 mM KCl, 137 mM NaCl (in PBS), 0.1% gelatin, 75 nM coelentrazine (Promega) and 10.2 ng/ml Renilla luciferase. Reactions contained either no lysing agent, 0.5% Tergitol NP-9 or 20 μg/ml digitonin. The detergents to be tested were titrated to 0.05%, 0.005% or 0.0005% in the reactions prior to the addition of the Renilla luciferase. Renilla luciferase-mediated luminescence was measured as described herein.

Assay [4] deals with T1, firefly luciferase. The assay can be described thus: Detergent titration with Tergitol NP-9, digitonin or no lysing agent, firefly luciferase (Example 4). The format is biochemical. The note with it: read-out: Relative Firefly Luc Intensity; for remaining activity at 0.0005 %: 0.0005% detergent; for remaining activity at 0.005 %: 0.0050% detergent; for remaining activity at 0.05 %: 0.0500% detergent. As for the experimental part:
For measurement of firefly luciferase-mediated luminescence, a solution containing 110 mM HEPES pH 7.5, 8 mM MgSO4, 0.05% gelatin, 7.35 ng/ml firefly luciferase (QuantiLum® Luciferase; Promega) and the content of the Steady-Glo Luciferase Substrate (Promega) at the equivalent of 1×, As in the Renilla luciferase reactions, reactions contained either no lysing agent, 0.5% Tergitol NP-9 or 20 μg/ml digitonin. The same detergents were titrated as described above and firefly luciferase-mediated luminescence was measured.

For assay [5], the target named is T2, Renilla luciferase. The assay can be described thus: biochemical. It counts as biochemical. The note with it: for remaining activity at 0.5 %: 0.5% detergent in Renilla Luciferase Assay Reagent, read-out: Retained Renilla Luciferase Luminescence (%); for Selectivity Value: retained firefly / retained Renilla, 0.5% detergent. As to the method:
(§4) The retained luminescence for each luciferase was calculated by dividing the luminescence in the presence of the detergent by the luminescence in the absence of the test detergent. The selectivity value for each of the test detergents was determined by dividing the retained firefly luciferase luminescence by the retained Renilla luciferase luminescence.
(§5) A set of detergents (Table 2; Sigma-Aldrich) was added at 0.5% (from a 5% or 10% stock solution) to either Luciferase Assay Reagent (Promega) or Renilla Luciferase Assay Reagent (Promega) and allowed to equilibrate at room temperature.
(§6) The firefly luciferase and Renilla luciferase enzymes were diluted as follows. Firefly luciferase was diluted to 14 ng/ml in Phosphate Buffered Saline (PBS) containing 0.1% of the protein carrier Prionex® (Pentapharm). Renilla luciferase was diluted to 10 ng/ml in 1× Renilla Luciferase Lysis Buffer (Promega) containing 0.1% Prionex®. The Renilla Luciferase Lysis Buffer […] detergent micelles when using the Renilla Luciferase Assay Reagent. In the absence of other detergents, this prevents sequestering of coelenterazine which inhibits Renilla luciferase-mediated luminescence.
(§7) The luciferase reactions were initiated by adding 40 μl of either the firefly or Renilla luciferase enzyme solution to 200 μl of the appropriate reagent solution (firefly luciferase enzyme solution+firefly luciferase reagent solution or Renilla luciferase enzyme solution+Renilla luciferase reagent solution, respectively). The reactions were performed in an opaque white, 96-well plate and luminescence was measured for 0.5 seconds per well using a Turner BioSystems Veritas™ Microplate luminometer. The retained firefly luciferase and Renilla luciferase luminescence, as well as the selectivity values for each detergent, were calculated (Table 2).

Assay [6] has as its target T1, firefly luciferase. The assay can be described thus: biochemical. The note with it: 0.5% detergent in Luciferase Assay Reagent; read-out: Retained Firefly Luciferase Luminescence (%). As for the experimental part: as §4, §5, §6, §7
Setting [7] is: 0.0500% (w:v) detergent, Terg (0.5% Tergitol NP-9).
Setting [8] is: 0.0500% detergent, Dig (20 μg/ml digitonin).
The mark [9] stands for this setting: 0.0500% detergent, Water (no lysing agent).

Read-outs that look alike come from different tables or passages of the source.

T1 sequence (P08659 whole entry): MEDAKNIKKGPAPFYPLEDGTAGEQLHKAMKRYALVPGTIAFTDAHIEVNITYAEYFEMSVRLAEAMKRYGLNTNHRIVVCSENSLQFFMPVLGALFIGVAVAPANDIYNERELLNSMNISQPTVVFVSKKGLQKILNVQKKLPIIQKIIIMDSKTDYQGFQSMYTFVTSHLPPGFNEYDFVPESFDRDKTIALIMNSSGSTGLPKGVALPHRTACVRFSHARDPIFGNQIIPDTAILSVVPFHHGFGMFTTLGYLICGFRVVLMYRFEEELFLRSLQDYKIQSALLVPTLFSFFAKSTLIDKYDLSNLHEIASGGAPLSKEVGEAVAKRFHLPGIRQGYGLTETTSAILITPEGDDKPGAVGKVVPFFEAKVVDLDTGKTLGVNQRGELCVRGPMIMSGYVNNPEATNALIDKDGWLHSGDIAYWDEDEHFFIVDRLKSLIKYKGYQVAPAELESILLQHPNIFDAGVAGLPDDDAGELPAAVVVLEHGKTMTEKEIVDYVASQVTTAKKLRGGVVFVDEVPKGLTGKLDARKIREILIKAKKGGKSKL

Turning to `CCCCCCCCCCCCOCC[N+](C)(C)Cc1ccccc1.[Cl-]` [Benzyldimethyl(2-dodecyloxethyl)ammonium chloride], the “Retained Firefly Luminescence (%)” value on firefly luciferase [1] came out at 174.0%. On Renilla luciferase [2], the “Retained Renilla Luminescence (%)” value was 20.5% and the “Selectivity Value” was 8.5.
The corresponding values for `CCCCCCCCCCCC[N+](C)(C)Cc1ccc2c(c1)CCCC2.[Cl-]` [Dimethyldodecyl(5,6,7,8-tetrahydro-2-naphthylmethyl)ammonium chloride] are 112.0%, 118.0% and 0.9.
For the compound `CCCCCCCCCCCC[N+](C)(C)C.[Br-]` [Dodecyltrimethylammonium bromide], the “Selective Inhibition (Ff Luc Inh/Ren Luc Inh)” value on Renilla luciferase [3] (0.0005% detergent, Dig) amounted to 1.1; at Renilla luciferase [3] (0.0005% detergent, Terg), 1.0; at Renilla luciferase [3] (0.0005% detergent, Water), 1.1; at Renilla luciferase [3] (0.0050% detergent, Dig) it was 2.3; at Renilla luciferase [3] (0.0050% detergent, Terg) it was 1.2; on Renilla luciferase [3] (0.0050% detergent, Water), 2.5. In addition, the “Selective Inhibition (Ff Luc Inh/Ren Luc Inh)” value came to 98 at Renilla luciferase [3] (0.0500% detergent, Dig); 8 on Renilla luciferase [3] (0.0500% detergent, Terg); 110 at Renilla luciferase [3] (0.0500% detergent, Water). The remaining activity at 0.0005 % amounted to 96% at Renilla luciferase [3] (0.0005% detergent, Dig); 98% at Renilla luciferase [3] (0.0005% detergent, Terg); 95% at Renilla luciferase [3] (0.0005% detergent, Water); 103% at firefly luciferase [4] (Dig); 96% at firefly luciferase [4] (Terg); 107% at firefly luciferase [4] (Water). Moreover, the remaining activity at 0.005 % was 55% on Renilla luciferase [3] (0.0050% detergent, Dig); 76% on Renilla luciferase [3] (0.0050% detergent, Terg); 51% at Renilla luciferase [3] (0.0050% detergent, Water); 128% at firefly luciferase [4] (Dig); 93% on firefly luciferase [4] (Terg); 128% on firefly luciferase [4] (Water). For the same compound, the remaining activity at 0.05 % worked out at 9% on Renilla luciferase [3] (setting [7]); 2% on Renilla luciferase [3] (setting [8]); 2% on Renilla luciferase [3] (setting [9]); 184% at firefly luciferase [4] (Dig (20 μg/ml digitonin)); 71% on firefly luciferase [4] (Terg (0.5% Tergitol NP-9)); 197% at firefly luciferase [4] (Water (no lysing agent)). Further, the remaining activity at 0.5 % on Renilla luciferase [5] is 1.74%; at firefly luciferase [6], 42.1%. The “Selectivity Value” on Renilla luciferase [5] was found to be 24.2.
For the compound `CCCCC[N+](CCCCC)(CCCCC)CCCCC.[Br-]` [Tetrapentylammonium bromide], the “Selective Inhibition (Ff Luc Inh/Ren Luc Inh)” value at Renilla luciferase [3] (0.0005% detergent, Dig) came out at 1.0; at Renilla luciferase [3] (0.0005% detergent, Terg) it was 1.0; at Renilla luciferase [3] (0.0005% detergent, Water), 1.0; at Renilla luciferase [3] (0.0050% detergent, Dig), 1.2; at Renilla luciferase [3] (0.0050% detergent, Terg), 1.2; on Renilla luciferase [3] (0.0050% detergent, Water), 1.2. Also, the “Selective Inhibition (Ff Luc Inh/Ren Luc Inh)” value at Renilla luciferase [3] (0.0500% detergent, Dig) is listed as 2.9; on Renilla luciferase [3] (0.0500% detergent, Terg), 2.5; at Renilla luciferase [3] (0.0500% detergent, Water), 3.0. Moreover, the remaining activity at 0.0005 % at Renilla luciferase [3] (0.0005% detergent, Dig) is 99%; at Renilla luciferase [3] (0.0005% detergent, Terg), 96%; on Renilla luciferase [3] (0.0005% detergent, Water) it was 98%; at firefly luciferase [4] (Dig), 100%; at firefly luciferase [4] (Terg), 97%; at firefly luciferase [4] (Water), 98%. Further, the remaining activity at 0.005 % was determined as 87% at Renilla luciferase [3] (0.0050% detergent, Dig); 81% at Renilla luciferase [3] (0.0050% detergent, Terg); 83% on Renilla luciferase [3] (0.0050% detergent, Water); 104% at firefly luciferase [4] (Dig); 96% on firefly luciferase [4] (Terg); 101% at firefly luciferase [4] (Water). Also, the remaining activity at 0.05 % at Renilla luciferase [3] (setting [7]) worked out at 38%; on Renilla luciferase [3] (setting [8]), 40%; at Renilla luciferase [3] (setting [9]), 37%; at firefly luciferase [4] (Dig (20 μg/ml digitonin)) it was 117%; on firefly luciferase [4] (Terg (0.5% Tergitol NP-9)), 95%; at firefly luciferase [4] (Water (no lysing agent)), 110%. Moreover, the remaining activity at 0.5 % at Renilla luciferase [5] amounted to 37%; on firefly luciferase [6], 80.9%. In addition, the “Selectivity Value” on Renilla luciferase [5] was determined as 2.2.
`Cc1cc(C)c(C[N+](C)(C)C)cc1C.[Br-]` [Trimethyl(2,4,5-Trimethylbenzyl)ammonium bromide]: the “Selective Inhibition (Ff Luc Inh/Ren Luc Inh)” value on Renilla luciferase [3] (0.0005% detergent, Dig) turned out to be 1.8; on Renilla luciferase [3] (0.0005% detergent, Terg), 1.0; at Renilla luciferase [3] (0.0005% detergent, Water), 1.9; at Renilla luciferase [3] (0.0050% detergent, Dig) it was 18; on Renilla luciferase [3] (0.0050% detergent, Terg), 1.2; on Renilla luciferase [3] (0.0050% detergent, Water), 17. Moreover, the “Selective Inhibition (Ff Luc Inh/Ren Luc Inh)” value at Renilla luciferase [3] (0.0500% detergent, Dig) came to 47; at Renilla luciferase [3] (0.0500% detergent, Terg), 2.9; on Renilla luciferase [3] (0.0500% detergent, Water) it was 50. The remaining activity at 0.0005 % came out at 63% at Renilla luciferase [3] (0.0005% detergent, Dig); 92% on Renilla luciferase [3] (0.0005% detergent, Terg); 62% on Renilla luciferase [3] (0.0005% detergent, Water); 116% on firefly luciferase [4] (Dig); 95% at firefly luciferase [4] (Terg); 116% on firefly luciferase [4] (Water). For the same compound, the remaining activity at 0.005 % at Renilla luciferase [3] (0.0050% detergent, Dig) amounted to 3%; on Renilla luciferase [3] (0.0050% detergent, Terg) it was 67%; at Renilla luciferase [3] (0.0050% detergent, Water), 3%; on firefly luciferase [4] (Dig) it was 52%; at firefly luciferase [4] (Terg), 83%; at firefly luciferase [4] (Water), 54%. Further, the remaining activity at 0.05 % at Renilla luciferase [3] (setting [7]) was 4%; on Renilla luciferase [3] (setting [8]), 0.03%; at Renilla luciferase [3] (setting [9]), 0.03%; on firefly luciferase [4] (Dig (20 μg/ml digitonin)), 1%; on firefly luciferase [4] (Terg (0.5% Tergitol NP-9)), 12%; on firefly luciferase [4] (Water (no lysing agent)), 1%. Further, the remaining activity at 0.5 % on Renilla luciferase [5] was found to be 1.87%; on firefly luciferase [6] it was 0.06%.
